Results reported in patent US20240150341A1, “COMPOSITION FOR PREVENTING OR TREATING DISEASES CAUSED BY MITOCHONDRIAL DYSFUNCTION, CONTAINING ISOQUINOLINE DERIVATIVE COMPOUND AS ACTIVE INGREDIENT” (ALTMEDICALCO., LTD., priority 2021, published 2024).

Columns and labels:
[1] = test system: BEAS-2B cell line; experiment: Mitophagy activity with mt-Keima fluorescent protein in BEAS-2B cells (flow cytometry / confocal microscope); format: cell-based, human
Description: (§1) To analyze the mitophagy-promoting activity effect of the isoquinoline derivative compound synthesized in the Example 1 (hereinafter, CD1-012), a quantification method for mitophagy activity, using a mt-Keima fluorescent protein, was utilized, which can measure the mitophagy activity in living cells through flow cytometry or a confocal microscope.
To analyze the mitophagy-promoting activity effect of CD1-012 synthesized in Example 1, the BEAS-2B cell line, which is a human normal lung cell line, was induced to express the mt-Keima fluorescent protein. Following this, the CD1-012 (15 μM) and the compound of Comparative Example 1, CCCP (10 μM), were treated for 24 hours. After the treatment, the mitophagy activity of each sample was measured, and the results were represented in FIG. 1.
Specifically, FIG. 1A represents the analysis results using flow cytometry (FACS), FIG. 1B represents the analysis results using a confocal microscope, and FIG. 1C represents the measurement results of the quantitative changes in the mitochondria using a fluorescent protein, mito-YFP, which includes a targeting sequence to transport protein to the mitochondria.
To analyze whether CD1-012 synthesized in Example 1 promotes mitophagy activity in a concentration and time-dependent manner, the BEAS-2B cell line expressing mt-Keima was treated with varying concentrations of CD1-012 or a constant concentration (15 μM) for different durations. The mitophagy activity was then measured using flow cytometry, with the concentration-dependent mitophagy activity results represented in FIG. 3A and the time-dependent mitophagy activity results in FIG. 3B.
(§2) To confirm whether the synthesized CD1-012 in Example 1 specifically increases mitophagy activity, the CD1-012 (15 μM) of the Example 1 and the CCCP (10 μM) of Comparative Example 1 were treated to the BEAS-2B cell line expressing mt-Keima for 18 hours. Subsequently, the mitophagy activity was analyzed using a confocal microscope, and the results were represented in FIG. 4A. Moreover, the BEAS-2B cell line expressing Keima fluorescent protein was cultured in HBSS (Hanks' balanced salts solution) for 3 hours to induce a nutrient-deficient state (starvation, starv.). The autophagy activity was measured by comparing the sample treated with the CD1-012 (15 μM) for hours using a confocal microscope, and the results were represented in FIG. 4B.
The mitophagy-promoting activity effect of each sample was compared, and the results were represented in FIG. 5.

[2] = test system: APP/PS2 mice; experiment: Morris water maze test in Alzheimer's disease mouse model; format: in vivo; conditions: for memory capabilities, free-swimming analysis on the 7th day: intranasal, every day for 4 weeks, CD1-012 1 mg/Kg, palmatine 10 mg/Kg, FIG. 10
Protocol: Subsequently, to analyze the representative symptom improvement effect of Alzheimer's disease, spatial learning and memory abilities were measured through the Morris water maze test (represented in FIG. 10, 9-10 mice per group). During the behavior test, from day 1 to day 6, training was conducted, where the time taken from the start to climb the escape stand was measured 4 times. On the 7th day, free-swimming test was conducted for 60 seconds, and the time spent in the area where the escape stand was located during training was measured to analyze the learning and memory abilities of the experimental animals. The results were represented in […].
For the purpose of comparing the treatment effect of the CD1-012 synthesized in Example 1 with that of palmatine in Comparative Example 2 on an Alzheimer's disease animal model, APP/PS2 mice were intranasally administered with the CD1-012 at a concentration of 1 mg/Kg and palmatine at 10 mg/Kg every day for 4 weeks. The treatment effects on dementia were confirmed with a water maze test, and the results were represented in FIG. 10 (9-10 mice per group).

[3] = test system: mitochondrial reactive oxygen species (ROS); experiment: Mitochondrial reactive oxygen species, MitoSOX assay; format: cell-based; conditions: CD1-012 10 μM or 15 μM, CCCP 10 μM, FIG. 6
Protocol: (§3) To determine if the CD1-012 synthesized in Example 1 induces mitochondrial dysfunction similar to CCCP of Comparative Example 1, the CD1-012 (10 μM or 15 μM) and the CCCP (10 μM) were treated for hours. Afterward, the mitochondrial membrane potential and the level of mitochondrial reactive oxygen species (ROS) of each sample were analyzed, and the results were represented in FIG. 6.
(§4) The mitochondrial membrane potential was analyzed using the TMRM (tetramethylrhodamine methyl ester) assay, and the mitochondrial ROS was analyzed using the MitoSOX assay.

[4] = test system: mitochondrial membrane potential; experiment: Mitochondrial membrane potential, TMRM assay; format: cell-based; conditions: CD1-012 10 μM or 15 μM, CCCP 10 μM, FIG. 6
Protocol: as §3, §4

[5] = test system: PINK1 knockdown cells (shPINK1), BEAS-2B; experiment: Mitophagy activity in PINK1 knockdown (shPINK1) BEAS-2B cells (FACS); format: cell-based, human; conditions: CCCP 10 μM, CD1-012 15 μM, 18 hours, FIG. 7
Protocol: In order to analyze whether the activation of mitophagy by the CD1-012 synthesized in Example 1 is dependent on the PINK1-Parkin pathway, the PINK 1 was knockdown using short hairpin RNA (shRNA) in BEAS-2B cell lines. Then, CCCP (10 μM) from Comparative Example 1 and the CD1-012 (15 μM) were treated for 18 hours, and the mitophagy activity of each sample was analyzed using a flow cytometry (FACS) and represented in FIG. 7.

[6] = test system: SH-SY5Y overexpressing APPswd/ind protein; experiment: ATP generation level in Alzheimer's disease cell model; format: cell-based, human; conditions: CD1-012 20 μM, measured 48 hours later, FIG. 8
Protocol: To verify whether the CD1-012 synthesized in Example 1 improves mitochondrial dysfunction in the Alzheimer's disease cell model, the human neuron cell line SH-SY5Y was overexpressed with APPswd/ind protein causing Alzheimer's disease to prepare the Alzheimer's disease cell model. After treating the cell model with the CD1-012 (20 μM) for hours, the ATP generation level, an indicator of mitochondrial function, was measured 48 hours later and the results were represented in FIG. 8.

[7] = test system: SH-SY5Y; experiment: Mitophagy activity in SH-SY5Y cells expressing mt-Keima (FACS); format: cell-based, human; conditions: FIG. 2A
Description: as §1
(§5) To determine whether CD1-012 synthesized in Example 1 enhances mitophagy activity in various cell lines, the human neuroblastoma cell line, SH-SY5Y, expressing mt-Keima fluorescent protein and HeLa cervical cancer cell line (Hela-Parkin) expressing Parkin (E3ligase) were treated with CD1-012 and CCCP of Comparative Example 1. Following this treatment, the mitophagy activity of each sample was analyzed using flow cytometry (FACS), and the results were represented in FIG. 2.
(§6) Specifically, FIG. 2A represents the analysis results for the SH-SY5Y cell line, and FIG. 2B represents the analysis results for the HeLa-Parkin cell line.

[8] = test system: HeLa cervical cancer cell line (Hela-Parkin); experiment: Mitophagy activity in HeLa-Parkin cells (FACS); format: cell-based; conditions: FIG. 2B
Description: as §1, §5, §6

[9] = test system: BEAS-2B cell line; experiment: Autophagy activity in BEAS-2B cells expressing Keima fluorescent protein (confocal microscope); format: cell-based, human; conditions: CD1-012 15 μM; compared with HBSS starvation 3 hours; FIG. 4B
Protocol: as §2

[10] = BEAS-2B mt-Keima, flow cytometry, FIG. 3A
[11] = APP/PS2 mice, 1 mg/kg every day for 4 weeks, nasal administration, FIG. 9

Compound: COc1cc2c(cc1OC)-c1cc3ccc(OC)c(OC)c3c[n+]1CC2 [palmatine, Palmatine, reference compound]
- concentration at which maximum mitophagy activity was reached ([1]; BEAS-2B mt-Keima, FIG. 5): 400 µM
- memory capabilities, free-swimming analysis on the 7th day ([2]; APP/PS2 mice): improved similarly

Compound: N#CC(C#N)=NNc1cccc(Cl)c1 [CCCP, Carbonyl Cyanide 3-chlorophenylhydrazone, reference compound]
- mitochondrial ROS [3]: significantly increased mitochondrial ROS
- mitochondrial membrane potential [4]: significantly reduced the mitochondrial membrane potential
- mitophagy activation in shPINK1 cells compared to the control cell line (shNT) [5]: significantly decreased

Compound: Oc1cc2c(cc1O)-c1cc3ccc(O)c(O)c3c[n+]1CC2 [CD1-012, 2,3,9,10-Tetrahydroxy-5,6-dihydroisoquinolino[3,2-a]isoquinolin-7-iumbromide]
- time from which a significant increase in mitophagy activity was observed ([1]; BEAS-2B mt-Keima, 15 μM, flow cytometry, FIG. 3B): 3 h
- concentration exhibiting mitophagy activity similar to the maximum of the comparators ([1]; BEAS-2B mt-Keima, FIG. 5): 10 µM
- concentration from which mitophagy activity began to significantly increase [1, 10]: 7.5 µM
- concentration up to which mitophagy activity continued to increase concentration-dependently [1, 10]: 17.5 µM
- mitophagy activity compared to the untreated control group ([1]; BEAS-2B mt-Keima, CD1-012 15 μM, 24 hours, FIG. 1): significant increase in mitophagy activity
- mitophagy activity compared with CCCP-treated sample ([1]; flow cytometry (FIG. 1A), CD1-012 15 μM vs CCCP 10 μM, 24 hours): increased as significantly as that of the sample treated with the representative mitophagy promoting compound, CCCP
- mitophagy-promoting activity effect, times better than berberine ([1]; from FIG. 5 concentrations): approximately 8 times
- mitophagy-promoting activity effect, times better than palmitate ([1]; from FIG. 5 concentrations): about 40 times
- concentration for similar dementia treatment effect, times lower than that of palmatine ([2]; 1 mg/Kg vs 10 mg/Kg palmatine): 10 times
- learning effect (escape latency) during 6 days of training [2, 11]: learning effect from day 3 to day 6
- time spent near the escape platform, free-swimming analysis on the 7th day [2, 11]: recovered close to that of normal mice
- memory capabilities, free-swimming analysis on the 7th day ([2]; APP/PS2 mice): improved similarly
- ATP production level [6]: recover and increase
- mitophagy activity compared to the control group [7]: significant increase in mitophagy activity
- mitophagy activity compared to the control group [8]: significant increase in mitophagy activity
- mitochondrial ROS [3]: did not increase mitochondrial ROS
- autophagy activity [9]: did not increase autophagy activity
- mitochondrial membrane potential [4]: did not observe a decrease in the mitochondrial membrane potential
- mitophagy activation in shPINK1 cells compared to the control cell line (shNT) [5]: did not show any significant difference

Compound: COc1ccc2cc3[n+](cc2c1OC)CCc1cc2c(cc1-3)OCO2 [berberine, Berberine, reference compound]
- concentration at which maximum mitophagy activity was reached ([1]; BEAS-2B mt-Keima, FIG. 5): 80 µM
